In this experiment the test system is L1210 leukemia ip in BDF1 mice, survival T/C. In words: NCI In Vivo Anticancer Drug Screen. Data for tumor model L1210 Leukemia (intraperitoneal) in B6D2F1 (BDF1) mice. The following applies: endpoint: mean survival time, higher = longer survival. The method in brief:
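Read-out is survival time, reported as the treated-group measurement over the vehicle-control measurement.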

Where [1] appears, read: dose: 100.0 mg/kg/injection, schedule: Q04DX003 (ip), vehicle: Klucel (hydroxypropylcellulose) (HPC).
The mark [2] stands for this setting: dose: 100.0 mg/kg/injection, schedule: Q01DX001 (ip), vehicle: Klucel (hydroxypropylcellulose) (HPC).
Setting [3] is: dose: 200.0 mg/kg/injection, schedule: Q01DX001 (ip), vehicle: Klucel (hydroxypropylcellulose) (HPC).
Where [4] appears, read: dose: 200.0 mg/kg/injection, schedule: Q04DX003 (ip), vehicle: Klucel (hydroxypropylcellulose) (HPC).
The mark [5] stands for this setting: dose: 400.0 mg/kg/injection, schedule: Q01DX001 (ip), vehicle: Klucel (hydroxypropylcellulose) (HPC).

From PubChem BioAssay AID248 (DTP/NCI, 2004) come the findings set out here.

Several values for one entry are separate records, joined by “and”; a condition that tells them apart may be missing. Identical values can stand only once. Inconclusive results and toxic doses are left out.

`CCOC(=O)CCOc1ccccc1N(CCCl)CCCl`: the T/C (dose: 1.2 mg/kg/injection, schedule: Q01DX Z (ip), vehicle: methylcellulose (MC)) was 110 % of control and 121 % of control; the T/C (dose: 2.4 mg/kg/injection, schedule: Q01DX Z (ip), vehicle: methylcellulose (MC)) is 110 % of control and 113 % of control; the T/C (dose: 3.13 mg/kg/injection, schedule: Q01DX009 (ip), vehicle: other) is 115 % of control; the T/C (dose: 4.7 mg/kg/injection, schedule: Q01DX Z (ip), vehicle: methylcellulose (MC)) was 108 % of control and 111 % of control; the T/C (dose: 6.2 mg/kg/injection, schedule: Q01DX001 (ip), vehicle: carboxymethylcellulose (CMC)) was 109 % of control; the T/C (dose: 8.7 mg/kg/injection, schedule: Q01DX Z (ip), vehicle: methylcellulose (MC)) was 178 % of control. The T/C is, setting by setting: (dose: 9.4 mg/kg/injection, schedule: Q01DX Z (ip), vehicle: methylcellulose (MC)) 100 % of control and 120 % of control; (dose: 12.5 mg/kg/injection, schedule: Q04DX003 (ip), vehicle: other) 106 % of control; (dose: 13.0 mg/kg/injection, schedule: Q01DX Z (ip), vehicle: methylcellulose (MC)) 161 % of control; (dose: 22.0 mg/kg/injection, schedule: Q01DX001 (ip), vehicle: carboxymethylcellulose (CMC)) 109 % of control; (dose: 25.0 mg/kg/injection, schedule: Q01DX001 (ip), vehicle: carboxymethylcellulose (CMC)) 124 % of control; (dose: 25.0 mg/kg/injection, schedule: Q01DX009 (ip), vehicle: saline sonified) 110 % of control. Also, the T/C (dose: 25.0 mg/kg/injection, schedule: Q04DX003 (ip), vehicle: other) was 106 % of control; the T/C (dose: 33.0 mg/kg/injection, schedule: Q01DX001 (ip), vehicle: carboxymethylcellulose (CMC)) is 109 % of control; the T/C (dose: 44.0 mg/kg/injection, schedule: Q01DX Z (ip), vehicle: methylcellulose (MC)) was 201 % of control; the T/C (dose: 50.0 mg/kg/injection, schedule: Q01DX009 (ip), vehicle: saline sonified) is 114 % of control; the T/C (dose: 50.0 mg/kg/injection, schedule: Q01DX009 (ip), vehicle: saline with Tween-80) is 162 % of control; the T/C (dose: 66.0 mg/kg/injection, schedule: Q01DX Z (ip), vehicle: methylcellulose (MC)) was 159 % of control. Further, the T/C is, setting by setting: (dose: 75.0 mg/kg/injection, schedule: Q01DX001 (ip), vehicle: carboxymethylcellulose (CMC)) 112 % of control; (dose: 75.0 mg/kg/injection, schedule: Q01DX Z (ip), vehicle: methylcellulose (MC)) 86 % of control; (dose: 100.0 mg/kg/injection, schedule: Q01DX Z (ip), vehicle: methylcellulose (MC)) 109 % of control; under setting [1], 90 % of control.
In the case of `CC(=O)Nc1c(C)cccc1[N+](=O)[O-]`, the T/C (dose: 100.0 mg/kg/injection, schedule: Q01DX001 (ip), vehicle: saline with Tween-80) is 94 % of control.
`O=C1C2CCC(C2)C1Cl` (stereo unspecified): the T/C is, setting by setting: (dose: 62.5 mg/kg/injection, schedule: Q04DX003 (ip), vehicle: saline with Tween-80) 95 % of control; (dose: 100.0 mg/kg/injection, schedule: Q04DX003 (ip), vehicle: saline with Tween-80) 95 % of control; (dose: 125.0 mg/kg/injection, schedule: Q04DX003 (ip), vehicle: saline with Tween-80) 103 % of control; (dose: 200.0 mg/kg/injection, schedule: Q04DX003 (ip), vehicle: saline with Tween-80) 97 % of control; (dose: 250.0 mg/kg/injection, schedule: Q04DX003 (ip), vehicle: saline with Tween-80) 104 % of control; (dose: 400.0 mg/kg/injection, schedule: Q04DX003 (ip), vehicle: saline with Tween-80) 100 % of control.
As for `COC(=O)N/N=C/c1ccc(C)cc1`, the T/C runs as follows: (dose: 100.0 mg/kg/injection, schedule: Q04DX002 (ip), vehicle: Klucel (hydroxypropylcellulose) (HPC)) 108 % of control; (dose: 200.0 mg/kg/injection, schedule: Q04DX002 (ip), vehicle: Klucel (hydroxypropylcellulose) (HPC)) 115 % of control; (dose: 400.0 mg/kg/injection, schedule: Q04DX002 (ip), vehicle: Klucel (hydroxypropylcellulose) (HPC)) 94 % of control.
With `S=C([SH2+])[SH2+].S=C([SH2+])[SH2+].[Pt+2].c1ccc(C[P+](c2ccccc2)(c2ccccc2)c2ccccc2)cc1`, the T/C is 96 % of control (dose: 12.5 mg/kg/injection, schedule: Q01DX009 (ip), vehicle: saline) and 97 % of control (dose: 25.0 mg/kg/injection, schedule: Q01DX009 (ip), vehicle: saline).
With `CC1=CC(=O)C2COc3c2c1cc1c(C)cc(=O)n(C)c31` (stereo unspecified), the T/C is 97 % of control (dose: 50.0 mg/kg/injection, schedule: Q04DX003 (ip), vehicle: Klucel (hydroxypropylcellulose) (HPC)); 95 % of control under setting [2]; 113 % of control under setting [1]; 95 % of control under setting [3]; 97 % of control under setting [4]; 97 % of control under setting [5].
Consider `O=C1C=CC(=O)C2=C1C1c3ccccc3C2([N+](=O)[O-])c2ccccc21`, for which the T/C is 100 % of control (dose: 100.0 mg/kg/injection, schedule: Q01DX009 (ip), vehicle: Klucel (hydroxypropylcellulose) (HPC)); 105 % of control under setting [1]; 92 % of control (dose: 200.0 mg/kg/injection, schedule: Q01DX009 (ip), vehicle: Klucel (hydroxypropylcellulose) (HPC)); 97 % of control under setting [4]; 97 % of control (dose: 200.0 mg/kg/injection, schedule: Q04DX003 (ip), vehicle: saline); 100 % of control (dose: 400.0 mg/kg/injection, schedule: Q01DX009 (ip), vehicle: Klucel (hydroxypropylcellulose) (HPC)). In addition, the T/C is 102 % of control (dose: 400.0 mg/kg/injection, schedule: Q04DX003 (ip), vehicle: Klucel (hydroxypropylcellulose) (HPC)) and 102 % of control (dose: 400.0 mg/kg/injection, schedule: Q04DX003 (ip), vehicle: saline).
Take `O=c1[nH]c(C(F)(F)F)c(CCc2ccccc2)c(=O)[nH]1`: the T/C is, setting by setting: under setting [2], 103 % of control; under setting [3], 110 % of control; under setting [5], 107 % of control.
